US10681909B2, “Herbicidal triazoles” (FMC Corporation, priority 2014, dated 2020)

Columns and labels:
[1] = test system: barnyardgrass; test: Test A postemergence; format: in vivo, Echinochloa crus-galli; details: 0 to 100 scale (0 no effect, 100 complete control), approx. 10 d
Procedure, shortened: (§1)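 Test chemicals, formulated in a surfactant-containing non-phytotoxic solvent mixture, are applied either as a directed soil spray to newly planted seeds or as a postemergence application to plants at the one- to two-leaf stage (2–10 cm). All plants grow in a loam soil and sand blend.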

[2] = test system: rice; test: Test B flooded paddy test; format: in vivo, Oryza sativa; details: applied to paddy water at 2-leaf stage, visual rating after 13 to 15 d, scale 0 (no effect) to 100 (complete control)
Source text: (§2) At time of treatment, test pots were flooded to 3 cm above the soil surface, treated by application of test compounds directly to the paddy water, and then maintained at that water depth for the duration of the test. Treated plants and controls were maintained in a greenhouse for 13 to 15 d, after which time all species were compared to controls and visually evaluated. […] A dash (-) response means no test result.

[3] = test system: crabgrass, large; test: Test A postemergence; format: in vivo, Digitaria sanguinalis; details: 0 to 100 scale (0 no effect, 100 complete control), approx. 10 d
Source text: (§3) Seeds of plant species selected from barnyardgrass (Echinochloa crus-galli), crabgrass, large (large crabgrass, Digitaria sanguinalis), kochia (Kochia scoparia), ragweed (common ragweed, Ambrosia elatior), foxtail, giant (giant foxtail, Setaria faberii), morningglory (Ipomoea spp.), pigweed (Amaranthus retroflexus), velvetleaf (Abutilon theophrasti), ryegrass, Italian (Italian ryegrass, Lolium multiflorum), wheat (Triticum aestivum), and corn (Zea mays) were planted into a blend of loam soil and sand and treated preemergence with a directed soil spray using test chemicals formulated in a non-phytotoxic solvent mixture which included a surfactant. At the same time, plants selected from these crop and weed species and also blackgrass (Alopecurus myosuroides), and galium (catchweed bedstraw, Galium aparine), were planted in pots containing the same blend of loam soil and sand and treated with postemergence applications of test chemicals formulated in the same manner. Plants ranged in height from 2 to 10 cm and were in the one- to two-leaf stage for the postemergence treatment. […] A dash (-) response means no test result.

[4] = test system: barnyardgrass; test: Test B flooded paddy test; format: in vivo, Echinochloa crus-galli; details: applied to paddy water at 2-leaf stage, visual rating after 13 to 15 d, scale 0 (no effect) to 100 (complete control)
Source text: as §2

[5] = test system: corn; test: Test A preemergence; format: in vivo, Zea mays; details: 0 to 100 scale (0 no effect, 100 complete control)
Source text: as §3

[6] = test system: pigweed; test: Test A postemergence; format: in vivo, Amaranthus retroflexus; details: 0 to 100 scale (0 no effect, 100 complete control), approx. 10 d
Procedure, shortened: as §1

[7] = test system: foxtail, giant; test: Test A postemergence; format: in vivo, Setaria faberii; details: 0 to 100 scale (0 no effect, 100 complete control), approx. 10 d
Procedure, shortened: as §1

[8] = test system: wheat; test: Test A postemergence; format: in vivo, Triticum aestivum; details: 0 to 100 scale (0 no effect, 100 complete control), approx. 10 d
Procedure, shortened: as §1

[9] = test system: pigweed; test: Test A preemergence; format: in vivo, Amaranthus retroflexus; details: 0 to 100 scale (0 no effect, 100 complete control)
Procedure, shortened: as §1

[10] = test system: sedge, umbrella; test: Test B flooded paddy test; format: in vivo, Cyperus difformis; details: applied to paddy water at 2-leaf stage, visual rating after 13 to 15 d, scale 0 (no effect) to 100 (complete control)
Source text: as §2

[11] = test system: velvetleaf; test: Test A preemergence; format: in vivo, Abutilon theophrasti; details: 0 to 100 scale (0 no effect, 100 complete control)
Source text: as §3

[12] = test system: morningglory; test: Test A preemergence; format: in vivo, Ipomoea spp.; details: 0 to 100 scale (0 no effect, 100 complete control)
Source text: as §3

[13] = test system: barnyardgrass; test: Test A preemergence; format: in vivo, Echinochloa crus-galli; details: 0 to 100 scale (0 no effect, 100 complete control)
Procedure, shortened: as §1

[14] = test system: morningglory; test: Test A postemergence; format: in vivo, Ipomoea spp.; details: 0 to 100 scale (0 no effect, 100 complete control), approx. 10 d
Source text: as §3

[15] = test system: foxtail, giant; test: Test A preemergence; format: in vivo, Setaria faberii; details: 0 to 100 scale (0 no effect, 100 complete control)
Procedure, shortened: as §1

[16] = test system: crabgrass, large; test: Test A preemergence; format: in vivo, Digitaria sanguinalis; details: 0 to 100 scale (0 no effect, 100 complete control)
Source text: as §3

[17] = test system: wheat; test: Test A preemergence; format: in vivo, Triticum aestivum; details: 0 to 100 scale (0 no effect, 100 complete control)
Source text: as §3

[18] = test system: velvetleaf; test: Test A postemergence; format: in vivo, Abutilon theophrasti; details: 0 to 100 scale (0 no effect, 100 complete control), approx. 10 d
Source text: as §3

[19] = test system: corn; test: Test A postemergence; format: in vivo, Zea mays; details: 0 to 100 scale (0 no effect, 100 complete control), approx. 10 d
Procedure, shortened: as §1

[20] = test system: ducksalad; test: Test B flooded paddy test; format: in vivo, Heteranthera limosa; details: applied to paddy water at 2-leaf stage, visual rating after 13 to 15 d, scale 0 (no effect) to 100 (complete control)
Source text: as §2

SMILES	Plant response rating, Barnyardgrass ([1]; 125 g ai/ha)	Plant response rating, Barnyardgrass ([1]; 500 g ai/ha)	Plant response rating, Crabgrass, Large ([3]; 125 g ai/ha)	Plant response rating, Crabgrass, Large ([3]; 500 g ai/ha)	Plant response rating, Corn ([5]; 125 g ai/ha)	Plant response rating, Corn ([5]; 500 g ai/ha, approx. 10 d)	Plant response rating, Pigweed ([6]; 125 g ai/ha)	Plant response rating, Pigweed ([6]; 500 g ai/ha)	Plant response rating, Foxtail, Giant ([7]; 125 g ai/ha)	Plant response rating, Foxtail, Giant ([7]; 500 g ai/ha)	Plant response rating, Wheat ([8]; 125 g ai/ha)	Plant response rating, Wheat ([8]; 500 g ai/ha)	Plant response rating, Pigweed ([9]; 125 g ai/ha)	Plant response rating, Pigweed ([9]; 500 g ai/ha, approx. 10 d)	Plant response rating, Velvetleaf ([11]; 125 g ai/ha)	Plant response rating, Velvetleaf ([11]; 500 g ai/ha, approx. 10 d)	Plant response rating, Morningglory ([12]; 125 g ai/ha)	Plant response rating, Morningglory ([12]; 500 g ai/ha, approx. 10 d)	Plant response rating, Barnyardgrass ([13]; 125 g ai/ha)	Plant response rating, Barnyardgrass ([13]; 500 g ai/ha, approx. 10 d)	other results
CCc1nc(-c2cccc(C(F)(F)F)c2)nn1Cc1ccnc(C(F)(F)F)c1 [Compound 11]	0	50	20	60	0	0	80	100	20	60	10	20	30	100	0	0	0	20	0	30	Plant response rating, Rice, Flood ([2]; 250 g ai/ha): 0; Plant response rating, Barnyardgrass, Flood ([4]; 250 g ai/ha): 0; Plant response rating, Sedge, Umbrella, Flood ([10]; 250 g ai/ha): 0; Plant response rating, Morningglory ([14]; 125 g ai/ha): 80; Plant response rating, Morningglory ([14]; 500 g ai/ha): 90; Plant response rating, Foxtail, Giant ([15]; 125 g ai/ha): 20; Plant response rating, Foxtail, Giant ([15]; 500 g ai/ha, approx. 10 d): 90; Plant response rating, Crabgrass, Large ([16]; 125 g ai/ha): 20; Plant response rating, Crabgrass, Large ([16]; 500 g ai/ha, approx. 10 d): 90; Plant response rating, Wheat ([17]; 125 g ai/ha): 0; Plant response rating, Wheat ([17]; 500 g ai/ha, approx. 10 d): 0; Plant response rating, Velvetleaf ([18]; 125 g ai/ha): 50; Plant response rating, Velvetleaf ([18]; 500 g ai/ha): 100; Plant response rating, Corn ([19]; 125 g ai/ha): 20; Plant response rating, Corn ([19]; 500 g ai/ha): 50; Plant response rating, Ducksalad, Flood ([20]; 250 g ai/ha): 0
CCCc1nc(-c2ccc(C(F)(F)F)cc2)nn1Cc1ccnc(C(F)(F)F)c1 [Compound 12]	30	50	50	90	0	20	100	100	70	90	30	40	100	100	70	70	70	90	50	80	Plant response rating, Rice, Flood ([2]; 125 g ai/ha): 0; Plant response rating, Barnyardgrass, Flood ([4]; 125 g ai/ha): 0; Plant response rating, Sedge, Umbrella, Flood ([10]; 125 g ai/ha): 0; Plant response rating, Morningglory ([14]; 125 g ai/ha): 70; Plant response rating, Morningglory ([14]; 500 g ai/ha): 100; Plant response rating, Foxtail, Giant ([15]; 125 g ai/ha): 100; Plant response rating, Foxtail, Giant ([15]; 500 g ai/ha, approx. 10 d): 100; Plant response rating, Crabgrass, Large ([16]; 125 g ai/ha): 100; Plant response rating, Crabgrass, Large ([16]; 500 g ai/ha, approx. 10 d): 100; Plant response rating, Wheat ([17]; 125 g ai/ha): 10; Plant response rating, Wheat ([17]; 500 g ai/ha, approx. 10 d): 30; Plant response rating, Velvetleaf ([18]; 125 g ai/ha): 70; Plant response rating, Velvetleaf ([18]; 500 g ai/ha): 100; Plant response rating, Corn ([19]; 125 g ai/ha): 20; Plant response rating, Corn ([19]; 500 g ai/ha): 40; Plant response rating, Ducksalad, Flood ([20]; 125 g ai/ha): 0
Cn1nc(-c2ccc(F)cc2)nc1Cc1ccnc(C(F)(F)F)c1 [Compound 13]	50	90	70	90	0	10	100	100	80	90	30	40	100	100	20	80	60	70	30	100	Plant response rating, Rice, Flood ([2]; 125 g ai/ha): 0; Plant response rating, Barnyardgrass, Flood ([4]; 125 g ai/ha): 0; Plant response rating, Sedge, Umbrella, Flood ([10]; 125 g ai/ha): 80; Plant response rating, Morningglory ([14]; 125 g ai/ha): 70; Plant response rating, Morningglory ([14]; 500 g ai/ha): 100; Plant response rating, Foxtail, Giant ([15]; 125 g ai/ha): 100; Plant response rating, Foxtail, Giant ([15]; 500 g ai/ha, approx. 10 d): 100; Plant response rating, Crabgrass, Large ([16]; 125 g ai/ha): 100; Plant response rating, Crabgrass, Large ([16]; 500 g ai/ha, approx. 10 d): 100; Plant response rating, Wheat ([17]; 125 g ai/ha): 0; Plant response rating, Wheat ([17]; 500 g ai/ha, approx. 10 d): 0; Plant response rating, Velvetleaf ([18]; 125 g ai/ha): 70; Plant response rating, Velvetleaf ([18]; 500 g ai/ha): 90; Plant response rating, Corn ([19]; 125 g ai/ha): 30; Plant response rating, Corn ([19]; 500 g ai/ha): 60; Plant response rating, Ducksalad, Flood ([20]; 125 g ai/ha): 65
